According to patent US7157430B2, “(Substituted)acyl dipeptidyl inhibitors of the ICE/CED-3 family of cysteine proteases” (Idun Pharmaceuticals, Inc., priority 1998, dated 2007):
pKi: −log10 of the molar value.

How the values were obtained:
Assay type in all cases: biochemical
Details in all cases: continuous assay 60 min, reaction initiated by adding enzyme
[1] = molecular target: MCH-5 (Homo sapiens, UniProt Q14790); experiment: Dissociation constant Ki and irreversible rate constant k3 for irreversible inhibitors, Mch5
Sequence of MCH-5 (Q14790 217-374 limits assumed, species assumed): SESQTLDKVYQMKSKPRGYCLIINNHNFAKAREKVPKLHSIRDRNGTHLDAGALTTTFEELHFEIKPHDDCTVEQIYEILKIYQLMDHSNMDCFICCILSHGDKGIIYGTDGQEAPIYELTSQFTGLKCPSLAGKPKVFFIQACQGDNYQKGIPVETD
Sequence of MCH-5 (Q14790 385-479 limits assumed, species assumed): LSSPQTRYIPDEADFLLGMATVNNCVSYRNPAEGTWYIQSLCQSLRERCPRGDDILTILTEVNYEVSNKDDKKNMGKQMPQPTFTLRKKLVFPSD
Description: (§1) For the irreversible inhibition of a ICE/ced-3 Family Protease enzyme with a competitive irreversible inhibitor; using the model represented by the following formulas: […]
(§2) The product formation at time t may be expressed as:
(§3) [formula] where E, I, EI and E-I denote the active enzyme, inhibitor, non-covalent enzyme-inhibitor complex and covalent enzyme-inhibitor adduct, respectively. The Ki value is the overall dissociation constant of the reversible binding steps, and k3 is the irreversible rate constant. The [S] and Ks values are the substate concentration and dissociation constant of the substrate bound to the enzyme, respectively. [E]^T is the total enzyme concentration.
(§4) The above equations were used to determine the Ki and k3 values of a given inhibitor bound to a ICE/ced-3 family protease. Thus, a continuous assay was run for sixty minutes at various concentrations of the inhibitor and the substrate. The assay was formulated essentially the same as described above for generating the data in Table 1, except that the reaction was initiated by adding the enzyme to the substrate-inhibitor mixture. The Ki and k3 values were obtained by simulating the product AMC formation as a function of time according to Equation 1.
(§5) The reference compound for this assay was Cbz-ValAlaAsp-CH2F and the values are denoted in Table 2 as “Reference”. The Ki values in Table 2 are in micromolar (μM). The k3/Ki values are in moles^−1 seconds^−1 (M^−1s^−1).

[2] = molecular target: T1, MCH-2 (Homo sapiens, UniProt P55212); experiment: Dissociation constant Ki and irreversible rate constant k3 for irreversible inhibitors, Mch2
T1 sequence (P55212 24-179 limits assumed): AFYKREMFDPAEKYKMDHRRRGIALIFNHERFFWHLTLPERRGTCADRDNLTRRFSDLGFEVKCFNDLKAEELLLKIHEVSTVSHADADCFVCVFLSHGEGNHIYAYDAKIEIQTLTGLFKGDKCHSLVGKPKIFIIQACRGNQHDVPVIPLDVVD
T1 sequence (P55212 194-293 limits assumed): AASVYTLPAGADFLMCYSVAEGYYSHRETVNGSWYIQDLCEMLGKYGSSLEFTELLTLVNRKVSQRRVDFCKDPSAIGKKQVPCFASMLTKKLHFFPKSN
Description: as §1, §2, §3, §4, §5

[3] = molecular target: T2, mICE (Mus musculus, UniProt P29452); experiment: Dissociation constant Ki and irreversible rate constant k3 for irreversible inhibitors, ICE
T2 sequence (P29452 123-296 limits assumed): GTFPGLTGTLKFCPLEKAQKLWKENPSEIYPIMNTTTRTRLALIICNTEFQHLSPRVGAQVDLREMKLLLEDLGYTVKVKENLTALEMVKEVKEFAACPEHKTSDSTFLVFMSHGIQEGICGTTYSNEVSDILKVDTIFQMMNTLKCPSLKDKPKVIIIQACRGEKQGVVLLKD
T2 sequence (P29452 315-402 limits assumed): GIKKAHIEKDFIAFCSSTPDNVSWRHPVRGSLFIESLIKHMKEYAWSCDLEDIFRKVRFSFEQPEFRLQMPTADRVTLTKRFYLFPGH
Description: as §1, §2, §3, §4, §5

[4] = molecular target: T3, CPP32 (Homo sapiens, UniProt P42574); experiment: Dissociation constant Ki and irreversible rate constant k3 for irreversible inhibitors, CPP32
T3 sequence (P42574 29-175 limits assumed): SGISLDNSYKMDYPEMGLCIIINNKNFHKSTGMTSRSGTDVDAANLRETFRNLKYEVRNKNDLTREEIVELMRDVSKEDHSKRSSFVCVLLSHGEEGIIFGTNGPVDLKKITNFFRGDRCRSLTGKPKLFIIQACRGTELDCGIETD
T3 sequence (P42574 176-277 limits assumed): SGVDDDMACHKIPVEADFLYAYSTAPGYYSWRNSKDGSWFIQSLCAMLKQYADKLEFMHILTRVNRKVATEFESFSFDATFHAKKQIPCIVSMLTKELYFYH
Description: as §1, §2, §3, §4, §5

Row | Structure (SMILES) | pKi [1] | MCH-5 k3/Ki [1] | pKi [2] | MCH-2 k3/Ki [2] | pKi [3] | mICE k3/Ki [3] | CPP32 k3/Ki [4] | pKi [4]
1 | CC(C)[C@H](NC(=O)COc1cccc2ccccc12)C(=O)N[C@@H](CC(=O)O)C(=O)COc1ccc(F)cc1 [Example 67] | 6.59 | 700 M⁻¹ s⁻¹ | 6.69 | 0 M⁻¹ s⁻¹ | 6.66 | 9,120 M^−1s^−1 | 8,560 M^−1s^−1 | 7.48
2 | CC(C)[C@H](NC(=O)COc1ccccc1-c1ccccc1)C(=O)N[C@@H](CC(=O)O)C(=O)COc1c(F)cc(F)cc1F [Example 151] | 6.57 | 5,900 M^−1s^−1 | 7.64 | 88,100 M^−1s^−1 | 6.46 | 29,600 M^−1s^−1 | 257,000 M^−1s^−1 | 7.49
3 | CCCCCCP(=O)(OCC(=O)[C@H](CC(=O)O)NC(=O)[C@@H](NC(=O)COc1cccc2ccccc12)C(C)C)c1ccccc1 (stereo partly shown) [Example 106] | 6.87 | 10,500 M^−1s^−1 | 7.10 | 52,900 M^−1s^−1 | 6.78 | 42,500 M^−1s^−1 | 155,000 M^−1s^−1 | 7.32
4 | CC(C)[C@H](NC(=O)COc1cccc2ccccc12)C(=O)N[C@@H](CC(=O)O)C(=O)COP(C)(=O)c1ccc(F)cc1 (stereo partly shown) [Example 108] | 6.98 | 9,890 M^−1s^−1 | 7.43 | 60,400 M^−1s^−1 | 6.83 | 37,900 M^−1s^−1 | 140,000 M^−1s^−1 | 7.39
5 | CC(C)C[C@H](NC(=O)COc1ccccc1-c1ccccc1)C(=O)N[C@@H](CC(=O)O)C(=O)COc1c(F)c(F)cc(F)c1F [Example 164] | 6.65 | 6,190 M^−1s^−1 | 7.64 | 91,700 M^−1s^−1 | 6.33 | 24,000 M^−1s^−1 | 137,000 M^−1s^−1 | 7.20
6 | CC(C)[C@H](NC(=O)COc1ccccc1-c1ccccc1)C(=O)N[C@@H](CC(=O)O)C(=O)COc1c(F)c(F)cc(F)c1F [Example 152] | 7.18 | 16,600 M^−1s^−1 | 7.96 | 191,000 M^−1s^−1 | 6.72 | 29,300 M^−1s^−1 | 241,000 M^−1s^−1 | 7.54
7 | Cc1cc(OCC(=O)[C@H](CC(=O)O)NC(=O)[C@@H](NC(=O)COc2cccc3ccccc23)C(C)C)cc(=O)o1 [Example 111] | 5.54 | 170 M⁻¹ s⁻¹ | 5.67 | 230 M⁻¹ s⁻¹ | 6.51 | 6,500 M^−1s^−1 | 21,900 M^−1s^−1 | 6.66
8 | CC(C)[C@H](NC(=O)COc1cccc2ccccc12)C(=O)N[C@@H](CC(=O)O)C(=O)COc1cc(F)cc(F)c1 [Example 73] | 5.99 | 150 M⁻¹ s⁻¹ | 6.06 | 110 M⁻¹ s⁻¹ | 6.23 | 2,170 M^−1s^−1 | 9,240 M^−1s^−1 | 6.97
9 | CC(C)[C@H](NC(=O)COc1cccc2ccccc12)C(=O)N[C@@H](CC(=O)O)C(=O)COC(=O)c1c(Cl)cccc1Cl [Example 63] | 7.92 | 17,000 M^−1s^−1 | 7.92 | 56,900 M^−1s^−1 | 7.10 | 52,100 M^−1s^−1 | 725,000 M^−1s^−1 | 7.92
10 | CC(C)C[C@H](NC(=O)COc1ccccc1-c1ccccc1)C(=O)N[C@@H](CC(=O)O)C(=O)COC(=O)c1c(Cl)cccc1Cl [Example 162] | 6.89 | 5,290 M^−1s^−1 | 7.54 | 104,000 M^−1s^−1 | 6.50 | 22,200 M^−1s^−1 | 246,000 M^−1s^−1 | 7.36
11 | CC(C)[C@H](NC(=O)CCOc1cccc2ccccc12)C(=O)N[C@@H](CC(=O)O)C(=O)COc1cc(C(F)(F)F)n(-c2ccccc2)n1 [Example 159] | 4.97 | 86 M⁻¹ s⁻¹ | 6.95 | 15,000 M^−1s^−1 | 5.86 | 4,580 M^−1s^−1 | 11,700 M^−1s^−1 | 5.93
12 | CC(C)[C@H](NC(=O)COc1cccc2ccccc12)C(=O)N[C@@H](CC(=O)O)C(=O)COc1ccc(F)c(F)c1 [Example 72] | 5.98 | 120 M⁻¹ s⁻¹ | 5.94 | 90 M⁻¹ s⁻¹ | 6.14 | 1,620 M^−1s^−1 | 6,460 M^−1s^−1 | 7.05
13 | CC(C)[C@H](NC(=O)CCOc1cccc2ccccc12)C(=O)NC(CC(=O)O)C(=O)CF (mixture of isomers) [Example 55] | 7.25 | 20,400 M^−1s^−1 | 7.41 | 59,400 M^−1s^−1 | 6.61 | 33,200 M^−1s^−1 | 41,300 M^−1s^−1 | 6.73
14 | O=C(O)CC(NC(=O)[C@@H]1Cc2ccccc2N1C(=O)COc1cccc2ccccc12)C(=O)CF (stereo partly drawn) [Example 61, (2′S,3RS)-3-[N-((1-Naphthyloxy)Acetyl)Indoline-2′-Carbonyl]Amino-5-Fluoro-4-Oxopentanoic Acid] | 6.66 | 10,100 M^−1s^−1 |  |  | 6.83 | 93,200 M^−1s^−1 | 28,300 M^−1s^−1 | 6.44
15 | CC(C)[C@H](NC(=O)COc1cccc2ccccc12)C(=O)N[C@@H](CC(=O)O)C(=O)COc1c(F)c(F)c(F)c(F)c1F [Example 80] | 6.84 | 8,040 M^−1s^−1 | 7.64 | 13,600 M^−1s^−1 | 6.03 | 4,700 M^−1s^−1 | 56,600 M^−1s^−1 | 7.00
16 | O=C(O)CC(NC(=O)[C@@H]1Cc2ccccc2CN1C(=O)COc1cccc2ccccc12)C(=O)CF (mixture of isomers) [Example 60] | 6.33 | 5,780 M^−1s^−1 |  |  | 6.43 | 33,500 M^−1s^−1 | 8,440 M^−1s^−1 | 6.12
